Test results reported in ChEMBL document CHEMBL5500383, “Recent advances and future directions on small molecule VEGFR inhibitors in oncological conditions” (Eur J Med Chem, 2024).
One block for each compound: values may come before it.

Tests used:
[1] = test system: PC-3; assay: Cytotoxicity against human PC-3 cells assessed as reduction in cell viability incubated for 72 hrs by MTT assay; assay type: functional, cell-based; settings: PC-3, 72 h
[2] = test system: DU-145; assay: Cytotoxicity against human DU-145 cells assessed as reduction in cell viability incubated for 72 hrs by MTT assay; assay type: functional, cell-based; settings: DU-145, 72 h
[3] = test system: MDA-MB-435; assay: Cytotoxicity against human MDA-MB-435 cells assessed as reduction in cell growth measured for 72 hrs by MTT assay; assay type: functional, cell-based; settings: MDA-MB-435, 72 h
[4] = biological target: T1, Vascular endothelial growth factor receptor 2 (Homo sapiens, UniProt P35968); assay: Inhibition of human VEGFR2 by discoverX kinome scan assay
T1 sequence (P35968 whole entry): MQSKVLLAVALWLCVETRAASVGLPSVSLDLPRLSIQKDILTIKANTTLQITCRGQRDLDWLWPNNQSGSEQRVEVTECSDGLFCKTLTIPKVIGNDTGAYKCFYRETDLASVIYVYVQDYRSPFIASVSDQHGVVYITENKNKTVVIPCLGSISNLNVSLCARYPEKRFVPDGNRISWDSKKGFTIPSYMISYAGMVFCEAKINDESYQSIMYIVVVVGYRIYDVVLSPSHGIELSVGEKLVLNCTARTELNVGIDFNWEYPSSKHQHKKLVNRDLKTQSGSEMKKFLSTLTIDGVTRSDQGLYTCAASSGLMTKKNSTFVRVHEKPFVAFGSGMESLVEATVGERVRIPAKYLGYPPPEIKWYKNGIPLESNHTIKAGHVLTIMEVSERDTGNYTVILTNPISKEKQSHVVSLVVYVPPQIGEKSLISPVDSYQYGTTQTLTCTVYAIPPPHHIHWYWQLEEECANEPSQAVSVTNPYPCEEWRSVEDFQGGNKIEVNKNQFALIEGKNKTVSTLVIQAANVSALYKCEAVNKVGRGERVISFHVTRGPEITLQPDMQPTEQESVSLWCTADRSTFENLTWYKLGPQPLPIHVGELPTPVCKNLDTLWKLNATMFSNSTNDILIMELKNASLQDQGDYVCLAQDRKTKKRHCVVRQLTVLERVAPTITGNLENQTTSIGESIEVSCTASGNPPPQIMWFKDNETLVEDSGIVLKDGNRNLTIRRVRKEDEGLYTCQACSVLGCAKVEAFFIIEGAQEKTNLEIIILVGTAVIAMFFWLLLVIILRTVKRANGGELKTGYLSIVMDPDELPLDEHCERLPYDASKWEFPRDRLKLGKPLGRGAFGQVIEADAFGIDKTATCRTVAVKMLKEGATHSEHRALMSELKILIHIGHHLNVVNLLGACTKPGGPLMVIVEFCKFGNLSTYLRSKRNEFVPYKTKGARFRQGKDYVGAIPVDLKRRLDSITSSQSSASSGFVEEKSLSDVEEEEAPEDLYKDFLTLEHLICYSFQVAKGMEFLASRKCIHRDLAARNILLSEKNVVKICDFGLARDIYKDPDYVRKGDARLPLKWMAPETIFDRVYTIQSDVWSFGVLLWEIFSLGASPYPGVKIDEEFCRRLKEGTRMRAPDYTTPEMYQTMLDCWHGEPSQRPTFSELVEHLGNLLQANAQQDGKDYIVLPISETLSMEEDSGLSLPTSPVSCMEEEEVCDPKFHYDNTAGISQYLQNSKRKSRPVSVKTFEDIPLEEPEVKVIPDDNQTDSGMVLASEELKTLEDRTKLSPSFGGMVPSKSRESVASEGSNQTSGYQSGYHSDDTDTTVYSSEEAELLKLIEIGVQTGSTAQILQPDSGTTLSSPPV

[5] = test system: HepG2; assay: Antiproliferative activity against human HepG2 cells assessed as reduction in cell growth by MTT assay; assay type: functional, cell-based
[6] = test system: HCT-116; assay: Antiproliferative activity against human HCT-116 cells assessed as reduction in cell growth by MTT assay; assay type: functional, cell-based
[7] = test system: MCF7; assay: Antiproliferative activity against human MCF7 cells assessed as reduction in cell growth by MTT assay; assay type: functional, cell-based
[8] = test system: HCT-116; assay: Cytotoxicity against human HCT-116 cells assessed as reduction in cell viability by SRB assay; assay type: functional, cell-based
[9] = test system: HepG2; assay: Cytotoxicity against human HepG2 cells assessed as reduction in cell viability by SRB assay; assay type: functional, cell-based
[10] = test system: MCF7; assay: Cytotoxicity against human MCF7 cells assessed as reduction in cell viability by SRB assay; assay type: functional, cell-based
[11] = test system: PC-9; assay: Growth inhibition of human PC-9 cells; assay type: functional
[12] = test system: HCC827; assay: Growth inhibition of human HCC827 cells; assay type: functional
[13] = test system: HepG2; assay: Cytotoxicity against human HepG2 cells assessed as reduction in cell viability; assay type: functional, cell-based
[14] = test system: HCT-116; assay: Cytotoxicity against human HCT-116 cells assessed as reduction in cell viability; assay type: functional, cell-based
[15] = Cytotoxicity against African green monkey Vero cells assessed as reduction in cell viability incubated for 72 hrs by crystal violet staining based analysis; assay type: toxicity, Chlorocebus sabaeus
[16] = test system: MCF7; assay: Cytotoxicity against human MCF7 cells assessed as reduction in cell growth incubated for 48 hrs by MTT assay; assay type: functional, cell-based; settings: MCF7, 48 h
[17] = test system: PC-3; assay: Antiproliferative activity against human PC-3 cells assessed as reduction in cell growth; assay type: functional, cell-based
[18] = test system: PC-3; assay: Cytotoxicity against human PC-3 cells assessed as reduction in cell growth; assay type: toxicity, cell-based
[19] = test system: HOP-92; assay: Growth inhibition of human HOP-92 cells incubated for 48 hrs by sulforhodamine B assay; assay type: functional
[20] = biological target: Serine/threonine-protein kinase B-raf (Homo sapiens, UniProt P15056); assay: Inhibition of wild type BRAF (unknown origin)
Serine/threonine-protein kinase B-raf (Homo sapiens, UniProt P15056), sequence (P15056 whole entry): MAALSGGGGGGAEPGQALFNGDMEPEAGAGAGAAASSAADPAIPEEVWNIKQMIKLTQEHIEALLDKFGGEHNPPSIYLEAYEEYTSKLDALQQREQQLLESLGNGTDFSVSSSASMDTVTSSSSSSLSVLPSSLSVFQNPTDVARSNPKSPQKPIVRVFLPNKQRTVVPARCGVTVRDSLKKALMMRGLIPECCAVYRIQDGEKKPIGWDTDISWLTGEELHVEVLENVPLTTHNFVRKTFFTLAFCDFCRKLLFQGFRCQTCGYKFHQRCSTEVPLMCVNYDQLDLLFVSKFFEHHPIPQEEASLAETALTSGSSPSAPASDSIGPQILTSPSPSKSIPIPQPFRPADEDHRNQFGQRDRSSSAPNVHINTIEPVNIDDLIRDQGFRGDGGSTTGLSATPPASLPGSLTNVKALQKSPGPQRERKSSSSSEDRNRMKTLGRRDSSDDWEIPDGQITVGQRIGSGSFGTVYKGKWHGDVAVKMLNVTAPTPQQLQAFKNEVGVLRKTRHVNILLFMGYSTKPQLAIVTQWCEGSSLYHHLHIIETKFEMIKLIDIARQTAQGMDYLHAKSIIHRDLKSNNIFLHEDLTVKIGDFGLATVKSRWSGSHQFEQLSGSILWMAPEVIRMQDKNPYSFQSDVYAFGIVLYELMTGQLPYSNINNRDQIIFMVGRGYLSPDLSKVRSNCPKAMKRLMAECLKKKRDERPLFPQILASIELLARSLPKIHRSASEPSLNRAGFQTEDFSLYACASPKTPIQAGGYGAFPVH

[21] = biological target: Serine/threonine-protein kinase B-raf (Homo sapiens, UniProt P15056, V600E); assay: Inhibition of BRAF V600E mutant (unknown origin)
Serine/threonine-protein kinase B-raf (Homo sapiens, UniProt P15056, V600E), sequence (P15056 2-766 V600E limits assumed): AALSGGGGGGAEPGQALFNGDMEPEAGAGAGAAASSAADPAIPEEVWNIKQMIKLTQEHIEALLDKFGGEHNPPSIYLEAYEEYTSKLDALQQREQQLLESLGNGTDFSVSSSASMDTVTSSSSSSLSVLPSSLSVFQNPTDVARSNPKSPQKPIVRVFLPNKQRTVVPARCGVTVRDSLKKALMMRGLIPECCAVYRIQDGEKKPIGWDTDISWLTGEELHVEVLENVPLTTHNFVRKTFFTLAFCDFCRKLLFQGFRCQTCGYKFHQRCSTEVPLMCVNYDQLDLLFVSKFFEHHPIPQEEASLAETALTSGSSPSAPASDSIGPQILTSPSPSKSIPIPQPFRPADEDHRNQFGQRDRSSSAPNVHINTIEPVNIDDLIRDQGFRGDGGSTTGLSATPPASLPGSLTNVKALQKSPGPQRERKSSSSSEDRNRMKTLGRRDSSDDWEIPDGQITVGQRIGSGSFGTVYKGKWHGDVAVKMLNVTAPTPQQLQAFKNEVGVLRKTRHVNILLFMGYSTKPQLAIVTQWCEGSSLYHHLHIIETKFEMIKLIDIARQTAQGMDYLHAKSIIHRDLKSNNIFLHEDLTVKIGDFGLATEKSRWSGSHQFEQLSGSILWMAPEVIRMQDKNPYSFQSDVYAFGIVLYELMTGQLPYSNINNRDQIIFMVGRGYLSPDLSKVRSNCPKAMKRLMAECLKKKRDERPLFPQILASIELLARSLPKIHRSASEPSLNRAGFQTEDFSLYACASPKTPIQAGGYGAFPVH

[22] = biological target: RAF proto-oncogene serine/threonine-protein kinase (Homo sapiens, UniProt P04049); assay: Inhibition of C-RAF (unknown origin)
RAF proto-oncogene serine/threonine-protein kinase, sequence (P04049 whole entry): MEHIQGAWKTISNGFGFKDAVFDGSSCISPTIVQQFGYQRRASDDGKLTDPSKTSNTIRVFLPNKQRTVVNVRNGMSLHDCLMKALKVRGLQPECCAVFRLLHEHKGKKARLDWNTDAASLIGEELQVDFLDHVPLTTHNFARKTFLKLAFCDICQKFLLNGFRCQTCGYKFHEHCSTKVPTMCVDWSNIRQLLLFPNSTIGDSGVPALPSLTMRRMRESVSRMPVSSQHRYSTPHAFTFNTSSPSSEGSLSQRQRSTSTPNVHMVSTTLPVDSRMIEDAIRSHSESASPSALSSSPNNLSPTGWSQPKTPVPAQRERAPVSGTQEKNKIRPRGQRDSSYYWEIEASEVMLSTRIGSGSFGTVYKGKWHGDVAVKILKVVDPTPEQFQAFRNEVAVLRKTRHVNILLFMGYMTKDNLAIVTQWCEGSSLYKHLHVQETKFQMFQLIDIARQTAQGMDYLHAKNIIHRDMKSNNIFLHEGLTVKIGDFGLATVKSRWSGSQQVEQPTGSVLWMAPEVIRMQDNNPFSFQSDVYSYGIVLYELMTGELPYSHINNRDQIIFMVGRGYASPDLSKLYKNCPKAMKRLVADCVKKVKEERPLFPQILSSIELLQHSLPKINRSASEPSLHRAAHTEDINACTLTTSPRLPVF

[23] = test system: A549; assay: Antiproliferative activity against human A549 cells; assay type: functional, cell-based
[24] = test system: PC-3; assay: Antiproliferative activity against human PC-3 cells; assay type: functional, cell-based
[25] = test system: HepG2; assay: Antiproliferative activity against human HepG2 cells assessed as reduction in cell growth after 72 hrs by MTT assay; assay type: functional, cell-based; settings: HepG2, 72 h
[26] = test system: HCT-116; assay: Antiproliferative activity against human HCT-116 cells assessed as reduction in cell viability measured after 72 hrs by MTT assay; assay type: functional, cell-based; settings: HCT-116, 72 h
[27] = test system: A-375; assay: Antiproliferative activity against human A-375 cells assessed as reduction in cell viability measured after 72 hrs by MTT assay; assay type: functional, cell-based; settings: A-375, 72 h
[28] = test system: MCF7; assay: Antiproliferative activity against human MCF7 cells assessed as reduction in cell viability measured after 72 hrs by MTT assay; assay type: functional, cell-based; settings: MCF7, 72 h
[29] = test system: MIA PaCa-2; assay: Antiproliferative activity against human MIA PaCa-2 cells assessed as inhibition of cell growth incubated for 48 hrs by MTS assay; assay type: functional, cell-based; settings: MIA PaCa-2, 48 h
[30] = Inhibition of VEGFR (unknown origin); design: species or system Homo sapiens
[31] = biological target: T1, Vascular endothelial growth factor receptor 2; assay: Inhibition of VEGFR2 (unknown origin)
[32] = biological target: Epidermal growth factor receptor (Homo sapiens, UniProt P00533); assay: Inhibition of EGFR (unknown origin)
Epidermal growth factor receptor, sequence (P00533 whole entry): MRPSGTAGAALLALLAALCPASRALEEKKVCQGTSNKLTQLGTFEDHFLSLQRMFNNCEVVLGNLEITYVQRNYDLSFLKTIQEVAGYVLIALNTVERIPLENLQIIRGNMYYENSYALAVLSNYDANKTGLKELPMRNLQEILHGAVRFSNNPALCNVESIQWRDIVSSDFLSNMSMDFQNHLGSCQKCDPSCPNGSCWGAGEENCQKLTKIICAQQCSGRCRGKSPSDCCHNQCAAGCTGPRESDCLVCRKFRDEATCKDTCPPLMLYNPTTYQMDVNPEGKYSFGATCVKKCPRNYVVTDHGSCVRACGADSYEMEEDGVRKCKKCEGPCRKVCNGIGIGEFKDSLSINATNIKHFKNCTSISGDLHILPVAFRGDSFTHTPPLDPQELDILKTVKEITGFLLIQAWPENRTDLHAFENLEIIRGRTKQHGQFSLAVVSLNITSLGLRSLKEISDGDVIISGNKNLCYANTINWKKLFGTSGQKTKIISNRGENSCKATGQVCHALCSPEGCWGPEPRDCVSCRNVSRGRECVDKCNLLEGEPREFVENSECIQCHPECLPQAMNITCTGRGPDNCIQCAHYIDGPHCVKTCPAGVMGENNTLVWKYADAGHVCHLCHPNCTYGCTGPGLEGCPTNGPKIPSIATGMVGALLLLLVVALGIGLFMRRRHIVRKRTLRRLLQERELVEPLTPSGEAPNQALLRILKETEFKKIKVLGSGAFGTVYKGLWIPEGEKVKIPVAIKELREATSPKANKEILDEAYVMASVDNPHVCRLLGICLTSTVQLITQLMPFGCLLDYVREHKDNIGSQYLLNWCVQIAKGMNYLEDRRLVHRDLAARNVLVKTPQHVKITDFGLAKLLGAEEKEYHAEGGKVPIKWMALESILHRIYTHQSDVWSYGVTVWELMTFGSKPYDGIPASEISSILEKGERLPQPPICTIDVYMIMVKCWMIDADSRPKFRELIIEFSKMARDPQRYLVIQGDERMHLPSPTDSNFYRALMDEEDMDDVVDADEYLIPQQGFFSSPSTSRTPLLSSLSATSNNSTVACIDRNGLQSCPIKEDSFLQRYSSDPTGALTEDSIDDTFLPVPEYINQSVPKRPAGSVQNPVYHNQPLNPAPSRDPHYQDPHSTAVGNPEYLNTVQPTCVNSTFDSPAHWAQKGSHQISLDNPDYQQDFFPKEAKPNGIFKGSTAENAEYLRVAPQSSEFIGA

[33] = test system: HepG2; assay: Antiproliferative activity against human HepG2 cells; assay type: functional, cell-based
[34] = test system: MCF7; assay: Antiproliferative activity against human MCF7 cells; assay type: functional, cell-based
[35] = test system: HCT-116; assay: Antiproliferative activity against human HCT-116 cells; assay type: functional, cell-based
[36] = test system: MDA-MB-231; assay: Antiproliferative activity against human MDA-MB-231 cells; assay type: functional, cell-based
[37] = test system: Caco-2; assay: Antiproliferative activity against human Caco-2 cells; assay type: functional, cell-based
[38] = test system: HepG2; assay: Antiproliferative activity against human HepG2 cells assessed as cell growth inhibition incubated for 24 hrs by MTT assay; assay type: functional, cell-based; settings: HepG2, 24 h
[39] = test system: PC-3; assay: Antiproliferative activity against human PC-3 cells assessed as cell growth inhibition incubated for 24 hrs by MTT assay; assay type: functional, cell-based; settings: PC-3, 24 h
[40] = test system: HepG2; assay: Antiproliferative activity against human HepG2 cells assessed as reduction in cell growth; assay type: functional, cell-based
[41] = test system: Caco-2; assay: Antiproliferative activity against human Caco-2 cells assessed as reduction in cell growth; assay type: functional, cell-based
[42] = test system: MCF7; assay: Antiproliferative activity against human MCF7 cells assessed as inhibition of cell growth; assay type: functional, cell-based
[43] = test system: PC-3; assay: Antiproliferative activity against human PC-3 cells assessed as inhibition of cell growth; assay type: functional, cell-based
[44] = biological target: Serine/threonine-protein kinase pim-1 (Homo sapiens, UniProt P11309); assay: Inhibition of PIM-1 (unknown origin)
Serine/threonine-protein kinase pim-1, sequence (P11309 whole entry): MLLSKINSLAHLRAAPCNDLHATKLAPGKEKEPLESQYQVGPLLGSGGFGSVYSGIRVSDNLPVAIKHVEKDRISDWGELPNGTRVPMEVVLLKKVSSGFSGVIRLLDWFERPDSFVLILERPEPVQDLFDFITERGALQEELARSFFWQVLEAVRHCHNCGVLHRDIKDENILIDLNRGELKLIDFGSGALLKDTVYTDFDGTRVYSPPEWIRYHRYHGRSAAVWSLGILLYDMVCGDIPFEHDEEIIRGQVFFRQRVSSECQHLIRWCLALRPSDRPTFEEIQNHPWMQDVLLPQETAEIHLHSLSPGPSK

[45] = biological target: T1, Vascular endothelial growth factor receptor 2; assay: Inhibition of VEGFR2 (unknown origin) incubated for 1 hr in presence of ATP by ELISA method
[46] = test system: SF-539; assay: Antiproliferative activity against human SF-539 cells assessed as inhibition of cell growth at 10 uM after 48 hrs by sulforhodamine B assay relative to control; assay type: functional; design: scale not given: the % may be the effect or the level left

SMILES: COc1cc(-c2cc(-c3ccc4ccccc4c3)nc(NN)c2C#N)ccc1O
- IC50 [1]: 55 nM
- IC50 [2]: 8.5 nM
- IC50 [3]: 96 nM

SMILES: Cc1nc2ccccc2n(CC(=O)Nc2ccc(C(=O)NCc3ccccc3)cc2)c1=O
- IC50 [13]: 5300 nM
- IC50 [14]: 2200 nM
- IC50 at 72 h [15]: 11800 nM

SMILES: CC1=NN(c2ccc([N+](=O)[O-])cc2[N+](=O)[O-])C(=O)/C1=C\c1cn(-c2ccccc2)nc1-c1cccc([N+](=O)[O-])c1
- IC50 [16]: 16500 nM

SMILES: N#CCc1nnc(NC(=O)c2ccco2)s1
- IC50 [17]: 9.1 nM
- IC50 [18]: 68.7 nM

SMILES: Cc1ccc(S(=O)(=O)Nc2ccc(-c3cc(-c4cccc(F)c4)c(C#N)c(N)n3)cc2)cc1
- GI50 [19]: 1060 nM

Further lines, with some results ahead:

- IC50 [4]: 230 nM
- IC50 [5]: 4100 nM
- IC50 [6]: 2800 nM
- IC50 [7]: 10300 nM
SMILES: O=C(N/N=C/c1ccc(Cl)cc1)c1ccc(Nc2ncnc3sc4c(c23)CCCC4)cc1
- IC50 [8]: 2800 nM
- IC50 [9]: 4100 nM
- IC50 [10]: 10300 nM

- GI50 [11]: 6000 nM
- GI50 [12]: 1300 nM
SMILES: NC(=O)CCn1cc(-c2ccc3ncnc(Nc4cc(O)c(F)cc4F)c3c2)nn1

- IC50 [20]: 20 nM
- IC50 [21]: 2 nM
- IC50 [22]: 100 nM
- IC50 [23]: 100 nM
- IC50 [24]: 100 nM
- IC50 [25]: 100 nM
- IC50 [26]: 100 nM
- IC50 [27]: 100 nM
- IC50 [28]: 100 nM
- IC50 [29]: 100 nM
- IC50 [30]: > 100000 nM
SMILES: O=C(CSc1nc2ccccc2c(=O)n1-c1ccc(Cl)cc1)Nc1ccc(-c2nc3ccccc3[nH]2)cc1

- IC50 [31]: 98 nM
- IC50 [32]: 71 nM
- IC50 [33]: 18300 nM
- IC50 [34]: 7800 nM
- IC50 [35]: 31000 nM
- IC50 [36]: 23700 nM
- IC50 [37]: 12800 nM
SMILES: COc1ccc(-c2cc(-c3ccc(C)cc3)nc(NN)n2)cc1

- IC50 [31]: 5870 nM
- IC50 [38]: 6 nM
- IC50 [39]: 19 nM
- IC50 [40]: 6 nM
- IC50 [41]: 20 nM
- IC50 [42]: 10 nM
- IC50 [43]: 10 nM
- IC50 [44]: 7950 nM
SMILES: COc1ccc(-c2cc(-c3ccc(OC)c(OC)c3)c3c(N)c(C(=O)c4ccc(C)cc4)sc3n2)cc1OC

- IC50 [45]: 40300 nM
SMILES: CNC(=O)c1nc(Nc2ccc(NC(=O)Nc3cccc(OC)c3)cc2)c2ccccc2n1
- Activity [46]: 47.8%
